Results: patent publication US5958416A, “Heat shock protein peptides and methods for modulating autoimmune central nervous system disease” (Regents of the University of Minnesota, priority 1995, dated 1999)
“Also recorded” adds a separate entry of the source. Where two headings read alike, the source gives them in different places. No end group written: not given here.

Assays:
[1] = system: experimental autoimmune encephalomyelitis (EAE); assay: Modulation of EAE by pre-immunization with CNP 173-184 peptide-KLH (Example 4); assay type: in vivo, Lewis rats
[2] = system: IgG antibodies in CSF and sera of MS and OND patients; assay: Dot-blot analysis of patient CSF and sera for antibodies to CNP 173-184 peptide; assay type: binding, human
Description: Cerebrospinal fluid (CSF) and sera from MS patients and controls were analyzed for antibodies to the peptide derived from CNP isoform 2 (corresponding to amino acids 173-184) using dot-blot analyses. Samples from nine MS patients and five patients with other neurologic diseases (OND) were analyzed. The CNP 173-184 peptide coupled to BSA was adsorbed onto nitrocellulose membranes. Control wells received BSA alone. Two dilutions of paired spinal fluids and sera were added to the wells and the amount of antibody binding determined using peroxidase labeled anti-human IgG and an enhanced chemiluminescent assay (ECL Western Blotting Kit; Amersham International, Plc., Buckinghamshire, England). Using the public domain program, Image 1.40 (available from NIH), the integrated densities of the dots in the CNP 173-184 peptide wells and BSA wells were determined.

[3] = system: experimental autoimmune encephalomyelitis (EAE); assay: Modulation of EAE by pre-immunization with HSP65 peptides not coupled to KLH (Example 9); assay type: in vivo, Lewis rats; settings: 50 μg peptide not coupled to KLH, s.c., in IFA; 1 mg GPSC in CFA four weeks later
[4] = system: Peripheral blood lymphocytes (PBL); assay type: cell-based, human
[5] = positive/tested, peptide coupled to BSA on nitrocellulose, data not shown
[6] = chi-square p, PBL, listed as #6

In the case of “Leu-Lys-Lys-Leu-Lys-Pro-Gly-Leu-Glu-Lys-Asp-Phe (LKKLKPGLEKDF; also: coupled to BSA) [CNP 173-184 peptide, coupled to BSA in blots]”, the “EAE after GPSC challenge, pre-immunization in IFA” value ([1]; 50 μg s.c. in IFA, GPSC in CFA five to six weeks later) is reported as “suppression of EAE”, the “p, difference in EAE severity between peptide-IFA and KLH-IFA pre-immunized rats” value ([1]; day 13 post GPSC-CFA immunization) is reported as less than 0.02 and the “Integrated densities in peptide wells relative to BSA wells” value ([2]; MS CSF) is reported as “approximately twofold higher”. The “p, MS versus OND patients with CSF antibodies to the peptide” value ([2]; chi square analysis) was less than 0.03, the “CSF samples with antibodies to the peptide, MS patients” value [2, 5] was 5/9 and the “CSF samples with antibodies to the peptide, OND patients” value [2, 5] was 0/5. The “Number of MS patients with antibodies to the peptide in sera” value ([2]; sera) was 3 and the “Number of OND patients with antibodies to the peptide in sera” value ([2]; sera) was 1.
In the case of “lys-gly-tyr-ile-ser-gly-tyr-phe-val-thr-asp-ala-glu-arg-gln (KGYISGYFVTDAERQ) [Peptide #6]”, the “Protection against EAE after pre-immunization with the peptide” value [3] is reported as “did protect against or decrease the symptoms of EAE; also recorded: significantly decreases both the incidence and severity of EAE; also recorded: protects rats against EAE”, the “T cell proliferative response elicited by the peptide” value ([4]; PBL from MS and OND patients, greater than two-fold above background considered significant) is reported as “elicited specific T cell proliferative responses in some MS patients compared with OND patients” and the “Correlation of responsiveness to the peptide with responsiveness to M. tuberculosis, OND patients” value ([4]; Pearson correlation, PBL) is reported as “No significant correlations”. For the same substance, the “p, correlation of responsiveness to the peptide with responsiveness to M. tuberculosis, DR2+ MS females” value ([4]; Pearson correlation, PBL) was less than 0.02, the “p, correlation of responsiveness to the peptide with responsiveness to M. tuberculosis, DR2- MS males” value ([4]; Pearson correlation, PBL) was less than 0.01 and the “p, correlation of responsiveness to the peptide with responsiveness to M. tuberculosis, all MS patients” value ([4]; Pearson correlation, PBL) was less than 0.01. For the same substance, the “Difference in frequency of proliferative response, Group A greater than Group B: MS F vs MS M” value ([4]; chi-square p, PBL) was “greater response”, the “Difference in frequency of proliferative response, Group A greater than Group B: MS F vs OND M” value ([4]; chi-square p, PBL) was “greater response” and the “Difference in frequency of proliferative response, Group A greater than Group B: MS F, DR2- VS MS M, DR2-” value ([4]; chi-square p, PBL) was “responded more strongly”. The “Difference in frequency of proliferative response, Group A greater than Group B: MS F, DR2- vs MS F, DR2+” value ([4]; chi-square p, PBL) was “N.S”, the “Difference in frequency of proliferative response, Group A greater than Group B: MS M, DR2+ VS MS F, DR2+” value ([4]; chi-square p, PBL) was “N.S” and the “Difference in frequency of proliferative response, Group A greater than Group B: MS F vs MS M” value [4, 6] was less than 0.025. For the same substance, the “Difference in frequency of proliferative response, Group A greater than Group B: MS F vs OND M” value [4, 6] was less than 0.0005 and the “Difference in frequency of proliferative response, Group A greater than Group B: MS F, DR2- VS MS M, DR2-” value [4, 6] was less than 0.05.
